{"source": "patent US20130225629A1", "about": "“TARGETING PI3K/MTOR SIGNALLING AND NEUTROPHIL RECRUITMENT FOR TREATMENT OF ENTERITIS” (THE UNIVERSITY OF NORTH CAROLINA AT CHAPEL HILL, priority 2012, published 2013)", "key": {"[1]": {"test_system": "C. jejuni", "test": "C. jejuni induced colitis, histological intestinal inflammation score", "format": "in vivo, mice", "settings": "AS252424 10 mg/kg i.p. daily, 6 days, vs vehicle", "source_text": "All animal protocols were approved by the Institutional Animal Care and Use Committee of the University of North Carolina at Chapel Hill (Chapel Hill, N.C., United States of America). Germ-free 8 to 12 week old II10^−/−; NF-κBEGFP (129/SvEv; C57BL/6 mixed background) mice were transferred from germ-free isolators and immediately gavaged with 10^9 C. jejuni cfu/mouse (strain 81-176 (Korlath et al., 1985)). Mice were then housed under Specific Pathogen-Free (SPF) conditions and sacrificed at 5 or 12 days. […] Intestinal inflammation was scored by evaluating the degree of lamina propria immune cell infiltration, goblet cell depletion, architectural distortion, as well as crypt hyperplasia, ulceration, and abscesses using a score from 0-4. […] Cecal and colonic inflammation induced by S. typhimurium was evaluated using a score from 0-13 as described. […]\nAll animal protocols were approved by the Institutional Animal Care and Use Committee of the University of North Carolina at Chapel Hill (Chapel Hill, N.C., United States of America). […] Histological images were acquired using a DP71 camera and DP Controller 3.1.1.276 (Olympus, Center Valley, Pa., United States of America), and intestinal inflammation was scored on a scale of 0 to 4 as described before (Lippert et al., 2009; Sun et al., 2012). […]"}, "[2]": {"test_system": "II1β mRNA", "test": "Real-time RT-PCR of colonic II1β mRNA", "format": "in vivo, mice", "settings": "AS252424 vs vehicle treated infected mice", "protocol": "Total RNA from colonic tissue was extracted using TRIzol® kit (Invitrogen, Carlsbad, Calif., United States of America). Complementary DNA was prepared using M-MLV (Invitrogen). Messenger RNA levels of proinflammatory genes were determined using SYBR® Green PCR Master Mix (Applied Biosystems, Carlsbad, Calif., United States of America) on an ABI 7900HT Fast Real-Time PCR System and normalized to Gapdh. The polymerase chain reactions were performed according to the manufacturer's recommendation. The following gene primers were used: Gapdh_forward: 5′-[…]-3′ (SEQ ID NO: 2), Gapdh_reverse: 5′-[…]-3′ (SEQ ID NO: 3), II-1_forward: 5′-[…]-3′ (SEQ ID NO: 4), II-1_reverse: 5′-[…]-3′ (SEQ ID NO: 5), Cxcl2_forward: 5′-[…]-3′ (SEQ ID NO: 6), Cxcl2_reverse: 5′-[…]-3′ (SEQ ID NO: 7), II-17a_forward: 5′-[…]-3′ (SEQ ID NO: 8), II-17a_reverse: 5′-[…]-3′ (SEQ ID NO: 9), II12p40_forward: […] (SEQ ID NO: 10), II12p40_reverse: […] (SEQ ID NO: 11), Tnf forward: […] (SEQ ID NO: 12), Tnf reverse: […] (SEQ ID NO: 13).\nTotal RNA from intestinal tissues was extracted using TRIzol® kit (Invitrogen, Carlsbad, Calif., United States of America) following the manufacture's guide. cDNA was reverse-transcribed using M-MLV (Invitrogen). Proinflammatory 111β, Cxcl2, II17a and Tnfα mRNA expression levels were measured using SYBR® Green PCR Master mix (Applied Biosystems, Carlsbad, Calif., United States of America) on an ABI 7900HT Fast Real-Time PCR System and normalized to Gapdh. The PCR primers used were reported previously. (Sun et al., 2012). The PCR reactions were performed for 40 cycles according to the manufacturer's recommendation, and RNA fold changes were calculated using the ΔΔct method."}}, "data": [{"smiles": "O=C1NC(=O)/C(=C/c2ccc(-c3ccc(F)cc3O)o2)S1", "note": "[AS252424]", "values": [{"measurement": "C. jejuni-induced colitis", "setting": "[1]", "value": "reduced"}, {"measurement": "block of C. jejuni-induced I11β mRNA accumulation", "setting": "[2]", "value": 77, "unit": "%"}]}]}
